Reference: patent publication US20210315831A1, “PREPARATION OF NANOSUSPENSION COMPRISING NANOCRYSTALS OF ACTIVE PHARMACEUTICAL INGREDIENTS WITH LITTLE OR NO STABILIZING AGENTS” (CENTRE NATIONAL DE LA RECHERCHE SCIENTIFIQUE, priority 2018, published 2021)
Like-named read-outs stand apart in the source and are kept apart here.

Tests used:
white blood cells (WBC) = assay: Hematological toxicity, white blood cell count in mice; format: in vivo, BALB/c female mice
Experimental: The drug schedule protocol was equivalent to the anticancer efficacy study. Blood samples were taken in the mice tail vein at 1, 12, 15, 17 and 22 days and transferred to Eppendorf tube containing 2 μL of EDTA for white blood cells (WBC) numbering using a MS9-5 (MS Pharmaceuticals, France).

in vivo = conditions: female, BALB/c, mouse, plasma, iv, 10 mg/kg
[1] = test system: Murine carcinoma tumors CT26; assay: Anticancer efficacy on subcutaneous CT26 tumors in mice; conditions: 10 mg/kg ETO d8, d9 and d11, d12
CT26 colon cancer cells = assay: In vitro cytotoxicity, MTT test, CT26 cells; conditions: Mus musculus
[2] = Plasma pharmacokinetic in mice after intravenous injection; conditions: i.v. 10 mg/kg ETO
[3] = test system: LLC1 Lewis lung cancer cells; assay: cells; conditions: Mus musculus

Q: For `COc1cc([C@@H]2c3cc4c(cc3[C@@H](O[C@@H]3O[C@@H]5CO[C@@H](C)O[C@H]5[C@H](O)[C@H]3O)[C@H]3COC(=O)[C@H]23)OCO4)cc(OC)c1O` [Free Etoposide, etoposide], which “White blood cell count (10^9 cells/L), Days 1” value (white blood cells (WBC); day 1, taken as control before treatment) is on record?
A: 8.9 ± 2.3 10^9 cells/L

Q: And the “White blood cell count (10^9 cells/L), Days 12” value (white blood cells (WBC); day 12, last day of treatment, i.v. 10 mg/kg)?
A: 6.5 ± 4.4 10^9 cells/L

Q: What about the “White blood cell count (10^9 cells/L), Days 15” value (white blood cells (WBC); day 15, i.v. 10 mg/kg) of the same compound?
A: 11.6 ± 0.9 10^9 cells/L

Q: What about the “White blood cell count (10^9 cells/L), Days 17” value (white blood cells (WBC); day 17, i.v. 10 mg/kg) of the same compound?
A: 10.4 ± 1.3 10^9 cells/L

Q: And the “White blood cell count (10^9 cells/L), Days 22” value (white blood cells (WBC); day 22, i.v. 10 mg/kg)?
A: 11.3 ± 3.4 10^9 cells/L

Q: And the AUC(0-t) (in vivo)?
A: 6300 ng·h/mL

Q: And the MRT (in vivo)?
A: 1.89 min

Q: What about the half-life (in vivo) of the same compound?
A: 4.89 min

Q: What about the “Time for median tumor to reach 50 mm^3” value [1] of the same compound?
A: 9.5

Q: And the “mice weight loss throughout the investigation” value [1]?
A: a decrease is observed

Q: And the “Mean body weight change, d17” value ([1]; second value of the cell, d17)?
A: +3.85 d17

Q: And the “Mean body weight change (day of nadir)” value ([1]; value at nadir)?
A: −3.40

Q: And the “Median Tumor Volume (mm^3 on day 12)” value ([1]; day 12)?
A: 69 mm^3

Q: What about the IC50 (CT26 colon cancer cells; CT26, 48 h, read-out: CT26-IC50 (48 h) (μM)) of the same compound?
A: 11.3 ± 1.4 µM

Q: And the IC50 (CT26 colon cancer cells; CT26, 48 h, read-out: IC 50 (48 h) (μg/mL))?
A: 8.99 µg/mL

Q: And the IC50 (CT26 colon cancer cells; CT26, 72 h, read-out: CT26-IC50 (72 h) (μM))?
A: 5.6 ± 0.1 µM

Q: What about the IC50 (CT26 colon cancer cells; CT26, 72 h, read-out: IC 50 (72 h) (μg/mL)) of the same compound?
A: 5.17 µg/mL

Q: And the “Maximum amount in total mice plasma (μg/mL) ± SD (n = 6)” value [2]?
A: 37.62 ± 0.85 µg/mL

Q: And the IC50 ([3]; LLC1, 48 h, read-out: LLC1-IC 50 (48 h) (μM))?
A: 1.66 ± 0.13 µM

Q: What about the IC50 ([3]; LLC1, 72 h, read-out: LLC1-IC 50 (72 h) (μM)) of the same compound?
A: 1.05 ± 0.02 µM
